# Measurements reported in patent publication US6861235B1, “Method for controlling target microorganism” (priority 1998, dated 2005).
# Entries after “also recorded” stand apart in the source; their conditions may differ. Where two headings read alike, the source gives them in different places. Peptide text beside a SMILES is read from it.
# What was measured:
# [1] = test system: total cell count in the soil; format: cell-based
# [2] = test system: Ralstonia solanacearum OE1-1 strain; format: cell-based; settings: for cell count of the OE1-1 strain vs 0 ppm: Example 9; for control of R. solanacearum OE1-1 strain: Examples 9 and 10 summary, addition of 500 ppm or more
# [3] = test system: NKR strain; format: cell-based, Burkholderia sp. N16-1 strain; settings: for cell count of the NKR strain in the soil vs no addition: pH-adjusted SB soil
# [4] = test system: NKR strain; format: cell-based, Burkholderia sp. N16-1 strain
# [5] = test system: R. solanacearum OE1-1 strain; format: in vivo, tomato; settings: 500 ppm D-serine-added contaminated soil
# [6] = Example 5, 5000 ppm added after 5 days at 20° C.
# [7] = Biolog GN plate, compounds in parentheses showed slight color development
# [8] = Example 7, SB soil, 5000 ppm substrate, D-serine metabolites
Compound,"assimilation by the NKR strain (color development of an oxidation-reduction indicator) [4, 7]",also measured
"NC(CO)C(=O)O [D-serine, 2-amino-3-hydroxypropionic acid]",does not assimilate; also recorded: no color development,"total cell count in the soil [1]: almost no changes were observed; cell count of the OE1-1 strain vs control ([2]; Example 8, field soil, 5000 ppm): declined markedly; cell count of the OE1-1 strain vs 0 ppm ([2]; field soil, D-serine 500, 1000, 2000 or 5000 ppm): a reduction in the cell count; control of R. solanacearum OE1-1 strain [2]: works to control; cell count of the NKR strain in the soil vs no addition ([3]; Example 4, 0.5% D-serine added after 2 days culture at 30° C.): markedly reduced; also recorded: markedly declined; also recorded: very effective; cell count of the NKR strain in the soil vs no addition [3, 6]: markedly declined; also recorded: very effective; cell count of the NKR strain vs control section ([3]; Example 6, 5000 ppm, Kuroboku (black) soil A (field soil)): no effects were observed; cell count of the NKR strain vs control section ([3]; Example 6, 5000 ppm, Kuroboku (black) soil B, sandy soils A, B, C, D (all soils excluding Kuroboku soil A)): markedly declined; germination of tomato seeds ([5]; day 4 after sowing): germination of the tomato seeds was observed; growth of young tomato seedlings ([5]; no-addition seedlings all died except one by day 10): grew normally"
O=C(O)CCCCCCCCC(=O)O [sebacic acid],slight color development,–
CCC(=O)O [propionic acid],no color development,–
NC(=O)[C@@H](O)[C@@H](O)[C@H](O)[C@@H](O)C=O [glucuronamide],slight color development,–
NCCC[C@H](N)C(=O)O [L-omithine],slight color development,–
C[C@H](N)C(N)=O [alanine amide],slight color development,–
O=C(O)CC(=O)O [malonic acid],slight color development,–
NCCCCN [putrescine],slight color development,–
CCC(=O)C(=O)O [α-ketobutyric acid],slight color development,–
O=C(O)[C@@H](O)[C@@H](O)[C@H](O)[C@@H](O)C(=O)O [D-saccharic acid],slight color development,–
O=c1ccn([C@@H]2O[C@H](CO)[C@@H](O)[C@H]2O)c(=O)[nH]1 [uridine],slight color development,–
CC(=O)O [acetic acid],no color development,–
N[C@@H](CO)C(=O)O [L-serine],slight color development,"cell count of the NKR strain in the soil vs no addition [3, 6]: remained almost constant; also recorded: almost no effect"
CC(=O)C(=O)O [pyruvic acid],–,"cell count of the NKR strain vs control section [3, 8]: markedly declined; also recorded: exhibited control effects"
Cc1cn([C@H]2C[C@H](O)[C@@H](CO)O2)c(=O)[nH]c1=O [thymidine],no color development,–
OC[C@H]1O[C@H](O[C@H]2O[C@H](CO)[C@@H](O)[C@H](O)[C@H]2O)[C@H](O)[C@@H](O)[C@@H]1O [D-trehalose],slight color development,–
NCCO [ethanolamine],slight color development,"total cell count in the soil [1]: remained constant; cell count of the OE1-1 strain vs 0 ppm ([2]; ethanolamine 500 ppm sequentially added or 1000 ppm or greater): decrease in the cell counts; cell count of the OE1-1 strain vs 0 ppm ([2]; one-time addition of 500 ppm ethanolamine): did not exhibit sufficient effects; control of R. solanacearum OE1-1 strain [2]: works to control; cell count of the NKR strain vs control section [3, 8]: markedly declined; also recorded: exhibited control effects"
C[C@@H](N)C(=O)O [D-α-alanine],no color development,"cell count of the NKR strain vs control section [3, 8]: markedly declined; also recorded: exhibited control effects"
"O=P(O)(O)OCC(O)CO [D, L-α-glycerol phosphate]",no color development,–
OC[C@@H](O)[C@H](O)[C@@H](O)CO [xylitol],no color development,–
O=C(O)CCCO [γ-hydroxybutyric acid],no color development,–
NCCc1ccccc1 [phenylethylamine],no color development,–
"CC(O)C(C)O (stereo not shown) [2,3-butanediol]",no color development,–
OC[C@H]1O[C@H](OC[C@H]2O[C@H](O[C@]3(CO)O[C@H](CO)[C@@H](O)[C@@H]3O)[C@H](O)[C@@H](O)[C@@H]2O)[C@H](O)[C@@H](O)[C@H]1O [D-raffinose],no color development,–

Compound,"assimilation by the NKR strain (color development of an oxidation-reduction indicator) [4, 7]",also measured
O=P(O)(O)O[C@H]1O[C@H](CO)[C@@H](O)[C@H](O)[C@H]1O [glucose-1-phosphate],no color development,–
dextrin,no color development,–
COc1ccc2nccc(C(=O)O)c2c1 [quininic acid],slight color development,–
glycogen,no color development,–
NCC(=O)N[C@@H](CC(=O)O)C(=O)O [glycyl-L-aspartic acid] (H-Gly-Asp-OH),no color development,–
NC(CO)C(=O)O (racemic) [DL-serine],–,"cell count of the NKR strain in the soil vs no addition [3, 6]: the effect of cell count control can be observed though the degree of reduction is small"
O=C(O)/C=C/c1c[nH]cn1 [urocanic acid],slight color development,–
O=C[C@H](O)[C@@H](O)[C@H](O)[C@H](O)COP(=O)(O)O [glucose-6-phosphate],slight color development,–
gentiobiose,–,assimilation by the NKR strain (color development of an oxidation-reduction indicator) [4]: no color development
O=C(CO)[C@H](O)[C@H](O)[C@H](O)CO [D-piscose],slight color development,–
O=C(O)CCC(=O)C(=O)O [α-ketoglutaric acid],slight color development,–
OC[C@H]1O[C@H](O[C@H]2[C@H](O)[C@@H](O)[C@H](O)O[C@@H]2CO)[C@H](O)[C@@H](O)[C@@H]1O [maltose],no color development,–
OC[C@@H](O)[C@@H](O)CO [erythritol],no color development,–
C[C@@H](O)[C@H](N)C(=O)O [L-threonine],slight color development,–
N[C@H](CS)C(=O)O [D-cysteine],–,"cell count of the NKR strain vs control section [3, 8]: markedly declined; also recorded: exhibited control effects"
COC1OC(CO)C(O)C(O)C1O [β-methyl-D-glucose],no color development,–
α-cyclodexrin,no color development,–
N[C@@H](CC(=O)O)C(=O)O [L-aspartic acid],slight color development,–
C=C(CC(=O)O)C(=O)O [itaconic acid],no color development,–
O=C(CO)[C@@H](O[C@H]1O[C@H](CO)[C@@H](O)[C@H](O)[C@H]1O)[C@H](O)[C@H](O)CO [turanose],no color development,–
CCC(O)C(=O)O (stereo not drawn) [α-hydroxybutyric acid],slight color development,–
OC[C@H]1O[C@@H](O[C@H]2[C@H](O)[C@@H](O)[C@@H](O)O[C@@H]2CO)[C@H](O)[C@@H](O)[C@H]1O [α-D-lactose],slight color development,–
O=C[C@H](O)[C@@H](O)[C@H](O[C@@H]1O[C@H](CO)[C@@H](O)[C@H](O)[C@H]1O)[C@H](O)CO [cellobiose],slight color development,–
